Data as given in US9884066B2, “Bile acid-basic amino acid conjugates and uses thereof” (priority 2013, dated 2018).
Values joined by “and” are separate entries in the source; they are usually repeats but may differ in a detail not shown here. Identical values can stand only once. Like-named read-outs stand apart in the source and are kept apart here.

Experiments:
[1] = test system: mice fed a high fat diet (HFD); experiment: High fat diet (HFD) model in mice, five-week feeding with supplemented diets
[2] = test system: livers of mice fed a high fat diet (HFD); experiment: Histological evaluation of livers by H&E staining, scored by Modified Brunt Criteria (five-week HFD model); type: in vivo, C57BL mice; conditions: end of week 5; for Portal inflammation / Ballooning and disarray / Fibrosis: score per liver section; for Ballooning and disarray: * = and megakarya; for Fibrosis: ** = oval cell proliferation
Procedure: For liver histology, animals were sacrificed and liver tissues were removed and fixed in 4% formalin at room temperature. Liver sections were subjected to Hematoxylin-Eosin staining (PathoVet Veterinary Pathology Services, Rehovot, Israel).
Histological evaluation of livers was performed by H&E staining at the end of week 5. In the figure, arrows indicate micro and macrovesicular steatosis, and arrow heads indicate hepatocyte ballooning. […] This histological observation was in correlation with the elevated levels of blood liver enzymes SGOT and SGPT described above.

[3] = test system: mice fed a high fat diet (HFD); experiment: Intraperitoneal glucose tolerance test (IPGTT) in HFD-fed mice; type: in vivo; conditions: week fourteen; glucose 2 g/kg i.p., 12 hours-fasted; FIG. 11
Text: FIG. 11. Effect of CDCArg on insulin resistance as evaluated by intra-peritoneal glucose tolerance test (IPGTT). (A) IPGTT performed at weeks eight and (B) fourteen (before and after the beginning of treatment). Values are expressed as mean±SEM (n=8-9 animals per group). Means with * are statistically higher than Control group, p<0.05 (t.test (a) one way ANOVA, Post Hoc dunnett test (b)).

SREBP1c = experiment: Liver protein level by Western blot; type: in vivo, mice; conditions: beta-actin as control; FIG. 13C
Text: (§1) FIG. 13. Effect of CDCArg on lipogenic gene expression and energy expenditure related genes in the liver. Treatments: mice were fed with LFD for 14 weeks or with HFD for 10 weeks. At week 10 the HFD group was divided randomly into two equal groups that were pair fed. One group received HFD, while the other group received HFD+CDCArg. mRNA levels of (A) PGC1α, (B) PPARα. (C) Protein level of sterol regulatory element binding protein 1c (SREBP1). *p<0.05, statistically different from control by student t-test. GAPDH was used as housekeeping normalizing gene.
SREBP1c was analyzed by Western blot analysis using beta-actin as control. Abs: Anti SREBP-1 Santa Cruse (Sc-367); Secondary goat Anti-Rabbit IgG, Jackson ImmunoResearch, Mouse Anti-Actin (612656) BD Transduction Laboratories. Secondary goat Anti-mouse IgG, Jackson ImmunoResearch.

[4] = test system: mice fed a high fat diet (HFD); conditions: mouse, in vivo
PGC1α = experiment: Liver gene expression, mRNA by reverse-transcription and real time PCR; type: in vivo, mice; conditions: GAPDH normalizing gene; FIG. 13A
Text: as §1
(§2) Gene expression analyses of PPARα and PGC1α were performed by quantifying mRNA levels by reverse-transcription and real time PCR. GAPDH (glyceraldehyde 3-phosphate dehydrogenase) was used as housekeeping normalizing gene. The following primers were used: […]

PPARα = experiment: as above; type: in vivo, mice; conditions: GAPDH normalizing gene; FIG. 13B
Text: as §1, §2

AMPK = experiment: Liver AMPK and pAMPK levels by Western blot; type: in vivo, mice
Procedure: The levels of AMPK and pAMPK were analyzed using Western blot analysis.

[5] = test system: mice fed a high fat diet (HFD); conditions: for Liver weight: FIG. 12d
Text: Mice were randomly divided into two dietary groups:
1) Control diet: low-fat diet (LFD), 16% calories from fat (n=5);
2) High-fat diet (HFD): 60% calories from fat (mainly palm stearin) (n=16).
In order to determine the effects of CDCArg following the onset of liver steatosis, mice were first treated for 10 weeks with HFD to develop hepatic fat accumulation. Thereafter, the HFD-fed mice were divided to two equal groups (n=8 in each group): (a) continued the previous HFD treatment, and (b) HFD+CDCArg 0.5% w/w. In this part of the experiment mice were pair-fed (15.5 kCal/day per mice). The LFD control group consumed on average the same amount of calories per day per mice. The duration of treatment with CDCArg was four (4) weeks. Food consumption and gain of weight were evaluated.
To assess the impact of CDCArg on intestinal absorption, fecal lipid contents were measured before and after CDCArg consumption. Total lipids were extracted from feces using Folch's method (Folch et al., 1957, J Biol Chem, 226:497-509) after collecting feces during weeks 9-10 and 12-13. […] The effect of CDCArg on insulin resistance was evaluated using intraperitoneal glucose tolerance test (IPGTT). Glucose tolerance was assessed in the mice during the eighth and fourteenth weeks of the study (before and after the beginning of treatment with CDCArg). IPGTT was performed in 12 hours-fasted mice by injecting glucose (2 g/kg in 20% solution) intraperitoneally. Blood samples were obtained by cutting the tail tip and glucose concentration was measured after 0, 30, 60, 90, and 120 minutes.

N=C(N)NCCC[C@H](N)C(=O)O [Arg, L-arginine, reference compound]
Average triglycerides in the blood ([1]; end of week 5, FIG. 5a): higher level of blood triglycerides
Average total cholesterol in the blood ([1]; end of week 5, compared to control low fat diet, FIG. 4): significantly increased levels of total blood cholesterol
Liver damage by histology (H&E staining) ([2]; FIG. 9): increased liver damage
Portal inflammation [2]: 0
Ballooning and disarray [2]: 0
Fibrosis [2]: 0

CCOC(=O)[C@H](CCCNC(=N)N)NC(=O)CC[C@@H](C)[C@H]1CC[C@H]2[C@@H]3[C@H](O)C[C@@H]4C[C@H](O)CC[C@]4(C)[C@H]3CC[C@]12C [CDCArg, Chenodeoxycholyl-Arginine-Ethyl Ester]
Area under the curve of the glycemic response (IPGTT) [3]: decreasing the area under the curve of the glycemic response
Peak glucose values in the IPGTT [3]: lowering the peak glucose values
Average weight of adipose tissue (testicular fat) ([1]; end of week 5, compared to HFD alone or HFD+Arg, FIG. 3): significantly lower increase in testicular fat weight
Average liver weight ([1]; end of week 5, compared to control diet, FIG. 7): no difference in liver weight compared to control
Average body weight (increase) ([1]; five weeks, among groups that consumed a high fat diet, FIG. 2): lowest increase in body weight
Plasma level of insulin ([1]; five weeks, compared to the HFD group, FIG. 8b): significantly decreased
Plasma level of leptin ([1]; five weeks, compared to the HFD group, FIG. 8c): significantly decreased
SREBP1c protein expression in the liver (SREBP1c): suppress the protein expression
General toxicity (plasma creatinine, sodium, potassium and chloride levels) [4]: without toxicity effects
Saturated fat-induced liver damage (blood SGOT, SGPT) [4]: did not potentiate saturated fat-induced liver damage
PGC1α mRNA level in the liver (PGC1α): activated
PPARα mRNA level in the liver (PPARα): activated
Ratio of phosphorylated AMPK (pAMPK) to AMPK (AMPK): tending to be higher
Body weight gain ([5]; HFD+CDCArg 0.5% w/w for 4 weeks after 10 weeks HFD, vs continued HFD, FIG. 10a): prevented this weight gain
Adipose tissue weight ([5]; HFD+CDCArg compared to the HFD group, FIG. 10b): substantially lower
Liver micro and macro steatosis (histological evaluation) ([5]; HFD+CDCArg vs HFD group, FIG. 12e): lesser liver micro and macro steatosis
Liver weight ([5]; HFD+CDCArg vs HFD group): significantly lower
Liver weight ([5]; HFD+CDCArg vs control (LFD) group): even lesser than in control
Alkaline phosphatase levels in plasma ([5]; mouse, in vivo): not significantly altered
Plasma albumin levels ([5]; mouse, in vivo): significantly higher
SGPT levels ([5]; plasma, HFD+CDCArg compared with the HFD group, FIG. 12a): significantly lower
SGOT levels ([5]; plasma, HFD+CDCArg compared with the HFD group, FIG. 12b): significantly lower
Fat contents in feces ([5]; weeks 12-13, Folch's method, FIG. 10d): significantly higher
Portal inflammation [2]: 0 and 1
Ballooning and disarray [2]: 0
Fibrosis [2]: 0
